Data: patent US20250241901A1, “ACTIVATION OF MNRR1 / CHCHD2 AS A THERAPEUTIC TARGET FOR MITOCHONDRIA ASSOCIATED DISORDERS” (Wayne State University, priority 2024, published 2025)

Legend:
[1] = tested on: MELAS patient fibroblasts; experiment: Mitophagy and mitochondrial biogenesis markers in MELAS patient fibroblasts (immunoblot); format: cell-based, human; conditions: fibroblasts from three MELAS patients, 10 μM, 48 h
Method: FIGS. 8A-8D: MNRR1 activation using tizoxanide enhances mitochondrial function, mitophagy, and protects from LPS-induced inflammation in MELAS patient fibroblasts. FIG. 8A: Equal amounts of lysates from MELAS patient fibroblast (MF 1, 2, or 3) lysates treated with vehicle (DMSO) or tizoxanide (10 μM) for 48 h were separated on an SDS-PAGE gel and probed for LC3B, PGC1a, MNRR1, MTCO2, TOM20, and phospho-ubiquitin (S65) levels. GAPDH orTubulin was probed as a loading control. FIG. 8B: Oxygen consumption measured from MELAS patient fibroblasts treated with vehicle (DMSO) or tizoxanide (10 μM) for 48 h (n=4 biological replicates, mean±SE). FIG. 8C: Mitochondrial ATP rate measured in MELAS patient fibroblasts treated with vehicle (DMSO) or tizoxanide (10 μM) for 48 h (n=4 biological replicates, mean±SE). […]
Immunoblotting: Immunoblotting was performed as described previously. […] The clear supernatants were transferred to new tubes and quantified using the Bradford reagent with BSA as standard (BioRad, Hercules. CA). […] For detection after immunoblotting, the SuperSignal™ West Pico PLUS substrate (ThermoFisher, Waltham, MA) was used to generate chemiluminescence signal, which was detected with X-Ray film (RadTech, Vassar, MI).

[2] = tested on: MELAS patient fibroblasts; experiment: Heteroplasmy in MELAS patient fibroblasts; format: cell-based, human; conditions: low heteroplasmy levels (<50%)
Method: Restriction Enzyme Digestion: DNA was analyzed for the MELAS mutation as described previously. The A→G mutation creates a new Haelll site at position 3243 that can be amplified by PCR using primers corresponding to the light-strand positions 3116 to 3134 and to the heavy-strand positions 3353 to 3333. Equal amounts of the resulting products were digested with the restriction enzyme Haelll (New England Biolabs) and electrophoresed on a 2.5% agarose gel.

[3] = tested on: MELAS patient fibroblasts; experiment: LPS-induced ROS and TNF levels in MELAS patient fibroblasts; format: cell-based, human; conditions: 10 μM + 500 ng/mL LPS, 24 h
Method: FIGS. 8A-8D: MNRR1 activation using tizoxanide enhances mitochondrial function, mitophagy, and protects from LPS-induced inflammation in MELAS patient fibroblasts. FIG. 8A: Equal amounts of lysates from MELAS patient fibroblast (MF 1, 2, or 3) lysates treated with vehicle (DMSO) or tizoxanide (10 μM) for 48 h were separated on an SDS-PAGE gel and probed for LC3B, PGC1a, MNRR1, MTCO2, TOM20, and phospho-ubiquitin (S65) levels. GAPDH orTubulin was probed as a loading control. FIG. 8B: Oxygen consumption measured from MELAS patient fibroblasts treated with vehicle (DMSO) or tizoxanide (10 μM) for 48 h (n=4 biological replicates, mean±SE). FIG. 8C: Mitochondrial ATP rate measured in MELAS patient fibroblasts treated with vehicle (DMSO) or tizoxanide (10 μM) for 48 h (n=4 biological replicates, mean±SE). FIG. 8D: Heatmap representation of ROS and TNFα transcript levels from MELAS patient fibroblasts treated with vehicle (DMSO), LPS (DMSO+500 ng/mL LPS), or LPS plus tizoxanide (10 μM tizoxanide+500 ng/mL LPS) for 24 h (n=4 biological replicates). In all figures, * indicates p<0.05, ** indicates p<0.005.
ROS measurements: Total cellular ROS measurements were performed with CM-H2DCFDA (Life Technologies). […] Cells were washed twice in phosphate buffered saline and analyzed for fluorescence on a BioTek Synergy H1 Microplate Reader (Agilent).

[4] = in cells; cited from earlier work
MNRR1 = MNRR1 immunofluorescence in MDAMB468 cells; format: cell-based, human; conditions: MDAMB468, 10 μM, 24 h
Method: FIGS. 4A-4B: High throughput screen to identify MNRR1 activators. FIG. 4A: Campaign view representing compounds that activate MNRR1. Control levels are represented as a dotted line. Each compounds is shown as a small dot and nitazoxanide is highlighted as a large dot. FIG. 4B: MDAMB468 cells treated with Vehicle (DMSO) or nitazoxanide (10 μM) for 24 h were immunostained (MNRR1=orange, DAPI=blue) and imaged at 63λ using a confocal microscope. The scale bar represents 200 μm.
Immunofluorescence: Cells plated on glass cover slips were fixed with 3.7% formaldehyde (prepared in 1× PBS) at room temperature for 15 min, followed by permeabilization with 0.15% Triton X-100 (prepared in distilled water) for 2 min, and then blocked with 5% bovine serum albumin (BSA) (prepared in 1× PBS, 0.1% TWEEN-20 (PBST)) for 1 h at room temperature. Cells were washed with PBST then incubated for 1 h at room temperature in primary antibody solution containing Coralite® 594 conjugated mouse monoclonal anti-CHCHD2 IgG (1:100, Proteintech, Cat. No. CL594-66302) prepared in PBST. Cells were washed 3 times with PBST for 5 min each and mounted with Vectashield vibrance with DAPI (Cat. #H-1800-10, Vector Labs, Newark, CA). […] Corrected total fluorescence for each field to determine MNRR1 content was calculated using FIJI (National Institutes of Health).

[5] = single dose of 4 gm, adult humans; cited from earlier work
[6] = tested on: E. coli-induced placental inflammation; experiment: E. coli-induced placental inflammation model of preterm birth; format: in vivo; conditions: same dosage as in LPS model
Source text: Using the E. coli-induced placental inflammation model and methods similar to those described in Spencer et al. (PLoS One, 16(12): e0260370, 2021 doi: 10.1371/journal.pone.0260370), nitazoxanide therapy will be tested using the same dosage as above and in Purandare et al. (Placenta 140:66-71, 8 Jul. 2023; Purandare et al., bioRxiv, Feb. 1, 2023).

| Structure (SMILES) | mitochondrial biogenesis (PGC1α, MTCO2, TOM20 levels) [1] | mitophagy (LCB and pSer-65 ubiquitin levels) [1] | shift of heteroplasmy [2] | LPS-induced pro-inflammatory response (ROS and TNF levels) [3] | fraction metabolized to tizoxanide [4] [%] | MNRR1 level (MNRR1) | adverse effects [5] | reducing or preventing pre-term birth [6] |
| --- | --- | --- | --- | --- | --- | --- | --- | --- |
| O=C(Nc1ncc([N+](=O)[O-])s1)c1ccccc1O [tizoxanide, Tizoxanide] | enhances | enhances | do not show a shift of heteroplasmy | blocked |  |  |  |  |
| CC(=O)Oc1ccccc1C(=O)Nc1ncc([N+](=O)[O-])s1 [nitazoxanide, Nitazoxanide] |  |  |  |  | > 97 | increase of MNRR1 | did not result in any adverse effects | effective in reducing or preventing pre-term birth |
